Test results published in patent US11000033B2, “Ketone or oxime compound, and herbicide” (NISSAN CHEMICAL CORPORATION, priority 2014, dated 2021).

Legend:
Assay type in all cases: in vivo
[1] = test system: beet; assay: Test Example 5: effect on crop by foliage application, plastic box (symbol f); conditions: 320 g/ha, 3 weeks after application
In short: (§1)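 Soil: sterilized diluvial. Container: plastic box, 21 × 13 cm, 7 cm deep. Sowing: spot-like, ~1.5 cm cover. Growth: greenhouse, 25° C. to 30° C.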

[2] = test system: wheat; assay: Test Example 4: effect on crop by soil treatment (symbol e); conditions: application herbicide amount 320 g/ha
In short: (§2)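 Grown at 25° C. to 30° C. in a greenhouse, the crops came from seed sown spot-wise in sterilized diluvial soil under roughly 1.5 cm of covering soil.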

[3] = test system: Stellaria media; assay: Test Example 4: herbicidal effect by soil treatment (symbol P); conditions: application herbicide amount 320 g/ha
In short: (§3)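 Seeds were sown in sterilized diluvial soil, covered with about 1.5 cm of soil, and the soil surface was sprayed with a water-diluted emulsion of the compound at a predetermined rate. Plants grew in a greenhouse at 25° C. to 30° C.; effects were scored visually 3 weeks after application.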

[4] = test system: Abutilon theophrasti; assay: Test Example 4: herbicidal effect by soil treatment (symbol M); conditions: application herbicide amount 320 g/ha
In short: as §3

[5] = test system: Setaria viridis; assay: Test Example 4: herbicidal effect by soil treatment (symbol G); conditions: application herbicide amount 320 g/ha
In short: as §3

[6] = test system: Avena fatua; assay: Test Example 5: herbicidal effect by foliage application, plastic box (symbol I); conditions: 320 g/ha, 3 weeks after application
In short: (§4)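 After sowing into sterilized diluvial soil and growing two weeks under glass at 25° C. to 30° C., seedlings receive a uniform foliar spray of diluted emulsion. Damage is judged visually three weeks on.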

[7] = test system: Cyperus difformis; assay: Test Example 3: herbicidal effect by foliage application, Wagner pot (symbol E); conditions: application herbicide amount 320 g/ha
In short: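 Herbicidal activity was rated three weeks after a foliar spray of diluted emulsion concentrate, applied at a predetermined dose to plants grown for 14 days from seed in waterlogged alluvial soil within a 25–30 °C greenhouse.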

[8] = test system: directly sowed rice plant; assay: Test Example 3: effect on crop by foliage application, Wagner pot (symbol b); conditions: application herbicide amount 320 g/ha
In short: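 Greenhouse culture at 25–30 °C of seeded rice, Cyperus difformis, Leptochloa chinensis and Echinochloa crus-galli var. crus-galli, in alluvial soil held under 0.1–0.5 cm of water in a Wagner pot.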

[9] = test system: rice; assay: Test Example 4: effect on crop by soil treatment (symbol b); conditions: application herbicide amount 320 g/ha
In short: as §2

[10] = test system: Amaranthus retroflexus; assay: Test Example 4: herbicidal effect by soil treatment (symbol N); conditions: application herbicide amount 320 g/ha
In short: as §3

[11] = test system: Apera spica-venti; assay: Test Example 4: herbicidal effect by soil treatment (symbol L); conditions: application herbicide amount 320 g/ha
In short: as §3

[12] = test system: Digitaria ciliaris; assay: Test Example 5: herbicidal effect by foliage application, plastic box (symbol F); conditions: 320 g/ha, 3 weeks after application
In short: as §4

[13] = test system: soybean; assay: Test Example 5: effect on crop by foliage application, plastic box (symbol d); conditions: 320 g/ha, 3 weeks after application
In short: as §1

[14] = test system: wheat; assay: Test Example 5: effect on crop by foliage application, plastic box (symbol e); conditions: 320 g/ha, 3 weeks after application
In short: as §1

[15] = test system: Alopecurus myosuroides; assay: Test Example 5: herbicidal effect by foliage application, plastic box (symbol J); conditions: 320 g/ha, 3 weeks after application
In short: as §4

[16] = test system: Monochoria vaginalis; assay: Test Example 2: herbicidal activity, application during weed generation in submerged conditions (symbol C); conditions: Table 23; application herbicide amount 320 g/ha; grade 0-5 by criteria of Test Example 1
In short: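 Visual herbicidal ratings, taken three weeks after dosing, reflect post-emergence water-surface application to seedlings at one to two leaves. Conditions: co-sown weeds in alluvial soil flooded to 4 cm, greenhouse held at 25° C. to 30° C.; compound given as water-diluted emulsion at a fixed herbicide amount.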

SMILES | f: beet, effect on crop grade [1] | Effect on crop grade, e: wheat [2] | Herbicidal effect grade, P: Stellaria media [3] | Herbicidal effect grade, M: Abutilon theophrasti [4] | Herbicidal effect grade, G: Setaria viridis [5] | I: Avena fatua, herbicidal effect grade [6] | Effect on crop grade, b: directly sowed rice plant [9] | Herbicidal effect grade, N: Amaranthus retroflexus [10] | F: Digitaria ciliaris, herbicidal effect grade [12] | d: soybean, effect on crop grade [13] | e: wheat, effect on crop grade [14] | J: Alopecurus myosuroides, herbicidal effect grade [15] | herbicidal effect on E, grade 0-5 [7] | effect on crop b (directly sowed rice plant), grade 0-5 [8] | e (wheat) effect on crop grade [2] | M (Abutilon theophrasti) herbicidal effect grade [4] | G (Setaria viridis) herbicidal effect grade [5] | b (directly sowed rice plant) effect on crop grade [9] | N (Amaranthus retroflexus) herbicidal effect grade [10] | L (Apera spica-venti) herbicidal effect grade [11] | also measured
CC#Cc1cc(C)c(C2=C(OC(=O)COc3ccccc3)CC(CC(=NOC)C(C)C)C2=O)c(C)c1 (centres unmarked) [9-003] | 1 (Herbicidal ratio of 5% or higher and lower than 20%) | 4 (Herbicidal ratio of 70% or higher and lower than 90%) | 0 (Herbicidal ratio of 5% or lower (almost no effect)) | 0 (Herbicidal ratio of 5% or lower (almost no effect)) | 5 (Herbicidal ratio of 90% or more (almost completely withered)) | 4 (Herbicidal ratio of 70% or higher and lower than 90%) | 5 (Herbicidal ratio of 90% or more (almost completely withered)) | 0 (Herbicidal ratio of 5% or lower (almost no effect)) | 5 (Herbicidal ratio of 90% or more (almost completely withered)) | 4 (Herbicidal ratio of 70% or higher and lower than 90%) | 4 (Herbicidal ratio of 70% or higher and lower than 90%) | 5 (Herbicidal ratio of 90% or more (almost completely withered)) | – | – | – | – | – | – | – | – | E herbicidal effect grade ([7]; Table 24): 5 (Herbicidal ratio of 90% or more (almost completely withered)); b (directly sowed rice plant) effect on crop grade ([8]; Table 24): 5 (Herbicidal ratio of 90% or more (almost completely withered)); Herbicidal effect grade, L: Apera spica-venti [11]: 5 (Herbicidal ratio of 90% or more (almost completely withered))
CC(=O)CC1CC(O)=C(c2c(C)cc(Oc3ccccc3)cc2C)C1=O (centres unmarked) [7-014] | – | 0 (Herbicidal ratio of 5% or lower (almost no effect)) | 0 (Herbicidal ratio of 5% or lower (almost no effect)) | 0 (Herbicidal ratio of 5% or lower (almost no effect)) | 2 (Herbicidal ratio of 20% or higher and lower than 40%) | – | 4 (Herbicidal ratio of 70% or higher and lower than 90%) | 0 (Herbicidal ratio of 5% or lower (almost no effect)) | – | – | – | – | 2 (Herbicidal ratio of 20% or higher and lower than 40%) | 5 (Herbicidal ratio of 90% or more (almost completely withered)) | – | – | – | – | – | – | f: beet, effect on crop (criteria of Test Example 1) [1]: 0 (Herbicidal ratio of 5% or lower (almost no effect)); I: Avena fatua, herbicidal effect (criteria of Test Example 1) [6]: 1 (Herbicidal ratio of 5% or higher and lower than 20%); Herbicidal effect grade, L: Apera spica-venti [11]: 0 (Herbicidal ratio of 5% or lower (almost no effect)); F: Digitaria ciliaris, herbicidal effect (criteria of Test Example 1) [12]: 5 (Herbicidal ratio of 90% or more (almost completely withered)); d: soybean, effect on crop (criteria of Test Example 1) [13]: 0 (Herbicidal ratio of 5% or lower (almost no effect)); e: wheat, effect on crop (criteria of Test Example 1) [14]: 0 (Herbicidal ratio of 5% or lower (almost no effect)); J: Alopecurus myosuroides, herbicidal effect (criteria of Test Example 1) [15]: 0 (Herbicidal ratio of 5% or lower (almost no effect))
CON=C(C)CC1CC(OC(=O)COc2ccc(Cl)cc2Cl)=C(c2c(C)cc(C)cc2C)C1=O (centres unmarked) [1-075] | – | – | – | – | – | – | – | – | – | – | – | – | 5 (Herbicidal ratio of 90% or more (almost completely withered)) | 5 (Herbicidal ratio of 90% or more (almost completely withered)) | 4 (Herbicidal ratio of 70% or higher and lower than 90%) | 5 (Herbicidal ratio of 90% or more (almost completely withered)) | 5 (Herbicidal ratio of 90% or more (almost completely withered)) | 5 (Herbicidal ratio of 90% or more (almost completely withered)) | 5 (Herbicidal ratio of 90% or more (almost completely withered)) | 5 (Herbicidal ratio of 90% or more (almost completely withered)) | P (Stellaria media) herbicidal effect grade [3]: 0 (Herbicidal ratio of 5% or lower (almost no effect)); I: Avena fatua, herbicidal effect (criteria 0-5) [6]: 5 (Herbicidal ratio of 90% or more (almost completely withered)); F: Digitaria ciliaris, herbicidal effect (criteria 0-5) [12]: 5 (Herbicidal ratio of 90% or more (almost completely withered)); d: soybean, effect on crop (criteria 0-5) [13]: 1 (Herbicidal ratio of 5% or higher and lower than 20%); e: wheat, effect on crop (criteria 0-5) [14]: 5 (Herbicidal ratio of 90% or more (almost completely withered)); J: Alopecurus myosuroides, herbicidal effect (criteria 0-5) [15]: 5 (Herbicidal ratio of 90% or more (almost completely withered))
CON=C(CC1CC(OC(=O)COc2ccccc2)=C(c2c(C)cc(C)cc2C)C1=O)C1CC1 (centres unmarked) [1-063] | 0 (Herbicidal ratio of 5% or lower (almost no effect)) | – | – | – | – | 5 (Herbicidal ratio of 90% or more (almost completely withered)) | – | – | 1 (Herbicidal ratio of 5% or higher and lower than 20%) | 3 (Herbicidal ratio of 40% or higher and lower than 70%) | 4 (Herbicidal ratio of 70% or higher and lower than 90%) | 5 (Herbicidal ratio of 90% or more (almost completely withered)) | 5 (Herbicidal ratio of 90% or more (almost completely withered)) | 5 (Herbicidal ratio of 90% or more (almost completely withered)) | 3 (Herbicidal ratio of 40% or higher and lower than 70%) | 2 (Herbicidal ratio of 20% or higher and lower than 40%) | 5 (Herbicidal ratio of 90% or more (almost completely withered)) | 5 (Herbicidal ratio of 90% or more (almost completely withered)) | 0 (Herbicidal ratio of 5% or lower (almost no effect)) | 5 (Herbicidal ratio of 90% or more (almost completely withered)) | Herbicidal effect grade, C: Monochoria vaginalis [16]: 0 (Herbicidal ratio of 5% or lower (almost no effect))
COCC(CC1CC(O)=C(c2c(C)cc(C)cc2C)C1=O)=NOC (centres unmarked) [1-040] | 0 (Herbicidal ratio of 5% or lower (almost no effect)) | – | – | – | – | 4 (Herbicidal ratio of 70% or higher and lower than 90%) | – | – | 4 (Herbicidal ratio of 70% or higher and lower than 90%) | 0 (Herbicidal ratio of 5% or lower (almost no effect)) | 0 (Herbicidal ratio of 5% or lower (almost no effect)) | 5 (Herbicidal ratio of 90% or more (almost completely withered)) | 4 (Herbicidal ratio of 70% or higher and lower than 90%) | 5 (Herbicidal ratio of 90% or more (almost completely withered)) | 0 (Herbicidal ratio of 5% or lower (almost no effect)) | 0 (Herbicidal ratio of 5% or lower (almost no effect)) | 4 (Herbicidal ratio of 70% or higher and lower than 90%) | 5 (Herbicidal ratio of 90% or more (almost completely withered)) | 0 (Herbicidal ratio of 5% or lower (almost no effect)) | 5 (Herbicidal ratio of 90% or more (almost completely withered)) | Herbicidal effect grade, C: Monochoria vaginalis [16]: 0 (Herbicidal ratio of 5% or lower (almost no effect))
